The values that follow come from US10947215B2, “Heteroaryl compounds and their use as therapeutic drugs” (Dong-A Socio Holdings Co., Ltd., priority 2015, dated 2021).

Each structure is given as a SMILES string. Where only a bound is given, the exact number is not on record here.

This experiment deals with Ba/F3-CDM cells (Ba/F3 transfected with CD8-MerTK). Put plainly: In cell MER kinase assay, Ba/F3-CDM cell proliferation without IL-3 (Celltiter-Glo, GI50). Format: cell-based, murine. The settings on record: 48 hours, read-out: Cell growth inhibition (GI50). As to the method:
In Cell MER Kinase Assay Using BaF3 Cellular System
To establish an in cell kinase assay for MerTK kinase, the IL-3 dependent Ba/F3 cells of murine lymphoid origin was transfected with CD8-MerTK. […] For a routine cellular assay, Ba/F3-CDM cells were seeded at 2,000 cells per well in 384-well cell culture plate containing DMEM/10% FBS culture media and incubated for 24 hours before addition of compounds pre-diluted in culture media. Following compound treatment, cells were further incubated for 48 hours and the proliferation was measured. To discriminate a Ba/F3 growth inhibition by a specific inhibition of MerTK kinase following compound treatment vs growth inhibition due to a non-specific unintended cytotoxicity of compounds, we routinely carried out control sets of Ba/F3 cells in parallel that grown in IL3-supplemented growth media. In the presence of IL-3, the proliferation of Ba/F3 is no longer dependent on the MerTK activity. Cell growth and proliferation was measured with Celltiter-Glo™ system (Promega, USA) according to the manufacturer's instruction. The half-maximal growth inhibitory concentration (GI50) value was calculated with Prism6.0 software (GraphPad, USA).

Consider `Cc1cccc(C)c1CO[C@H]1CCC[C@@H]1NC(=O)c1cc(-c2cnn(C)c2)cnc1N` [Example 15, 2-amino-N-((1S,2S)-2-((2,6-dimethylbenzyl)oxy)cyclopentyl)-5-(1-methyl-1H-pyrazol-4-yl)nicotinamide], for which the GI50 was more than 1000 nM.

With `CCc1cc(CO[C@H]2CCC[C@@H]2NC(=O)c2cc(-c3cnn(C)c3)cnc2N)ccc1C` [Example 21], the GI50 was more than 1000 nM.

For `CN(C)c1ccc(-c2ccc(CO[C@H]3CCC[C@@H]3NC(=O)c3cc(-c4cnn(C)c4)cnc3N)cc2)cc1` [Example 137, 2-amino-N-((1S,2S)-2-((4′-(dimethylamino)-[1,1′-biphenyl]-4-yl)methoxy)cyclopentyl)-5-(1-methyl-1H-pyrazol-4-yl)nicotinamide], the GI50 was less than 100 nM.

Turning to `Cn1cc(-c2cnc(N)c(C(=O)N[C@H]3CCC[C@@H]3OCc3ccc(-c4ccc(CCN)cc4)cc3)c2)cn1` [Example 145, 2-amino-N-((1S,2S)-2-((4′-(2-aminoethyl)-[1,1′-biphenyl]-4-yl)methoxy)cyclopentyl)-5-(1-methyl-1H-pyrazol-4-yl)nicotinamide], the GI50 is more than 1000 nM.

As to `CN1CCN(c2ccc(-c3ccc(CO[C@H]4CCC[C@@H]4NC(=O)c4cc(-c5cnn(C)c5)cnc4N)cc3)cc2)CC1` [Example 146, 2-amino-5-(1-methyl-1H-pyrazol-4-yl)-N-((1S,2S)-2-((4′-(4-methylpiperazin-1-yl)-[1,1′-biphenyl]-4-yl)methoxy)cyclopentyl)nicotinamide], the GI50 was less than 100 nM.

As for `CN1CCN(c2ccc(-c3ccc(CO[C@H]4CCC[C@@H]4NC(=O)c4cc(-c5cnn(C)c5)cnc4N)cc3)cn2)CC1` [Example 148, 2-amino-5-(1-methyl-1H-pyrazol-4-yl)-N-((1S,2S)-2-((4-(6-(4-methylpiperazin-1-yl)pyridin-3-yl)benzyl)oxy)cyclopentyl)nicotinamide], the GI50 is more than 1000 nM.

`CN1CCN(Cc2ccc(-c3ccc(CO[C@H]4CCC[C@@H]4NC(=O)c4cc(-c5cnn(C)c5)cnc4N)c(F)c3)cc2)CC1` [Example 156, 2-amino-N-((1S,2S)-2-((3-fluoro-4′-((4-methylpiperazin-1-yl)-methyl)-[1,1′-biphenyl]-4-yl)methoxy)cyclopentyl)-5-(1-methyl-1H-pyrazol-4-yl)-nicotinamide]: the GI50 was less than 100 nM.

For `CN1CCN(CCc2ccc(-c3ccc(CO[C@H]4CCC[C@@H]4NC(=O)c4cc(-c5cnn(C)c5)cnc4N)cc3)cc2)CC1` [Example 161, 2-amino-5-(1-methyl-1H-pyrazol-4-yl)-N-((1S,2S)-2-((4′-(2-(4-methylpiperazin-1-yl)ethyl)-[1,1′-biphenyl]-4-yl)methoxy)cyclopentyl)nicotinamide], the GI50 was less than 100 nM.

On to `Cn1cc(-c2cnc(N)c(C(=O)N[C@H]3CCC[C@@H]3OCc3ccc(-c4ccc(CN5CCC(O)CC5)cc4)cc3)c2)cn1` [Example 180, 2-amino-N-((1S,2S)-2-((4′-((4-hydroxypiperidin-1-yl)methyl)-[1,1′-biphenyl]-4-yl)methoxy)cyclopentyl)-5-(1-methyl-1H-pyrazol-4-yl)nicotinamide], for which the GI50 was more than 1000 nM.

As for `Cn1cc(-c2cnc(N)c(C(=O)N[C@H]3CCC[C@@H]3OCc3ccc(-c4ccc(CN5CCN(CCO)CC5)cc4)cc3)c2)cn1` [Example 181, 2-amino-N-((1S,2S)-2-((4′-((4-(2-hydroxyethyl)piperazin-1-yl)-methyl)-[1,1′-biphenyl]-4-yl)methoxy)cyclopentyl)-5-(1-methyl-1H-pyrazol-4-yl)-nicotinamide], the GI50 is less than 100 nM.

With `Cn1cc(-c2cnc(N)c(C(=O)N[C@H]3CCC[C@@H]3OCc3ccc(-c4ccc(CN5CCN(CC(C)(C)O)CC5)cc4)cc3)c2)cn1` [Example 182, 2-amino-N-((1S,2S)-2-((4′-((4-(2-hydroxy-2-methylpropyl)-piperazin-1-yl)methyl)-[1,1′-biphenyl]-4-yl)methoxy)cyclopentyl)-5-(1-methyl-1H-pyrazol-4-yl)nicotinamide], the GI50 was less than 100 nM.

`CCN1CCN(Cc2ccc(-c3ccc(CO[C@H]4CCC[C@@H]4NC(=O)c4cc(-c5cnn(C)c5)cnc4N)cc3)cc2)CC1` [Example 183, 2-amino-N-((1S,2S)-2-((4′-((4-ethylpiperazin-1-yl)methyl)-[1,1′-biphenyl]-4-yl)methoxy)cyclopentyl)-5-(1-methyl-1H-pyrazol-4-yl)nicotinamide]: the GI50 was less than 100 nM.

For the compound `Cn1cc(-c2cnc(N)c(C(=O)N[C@H]3CCC[C@@H]3OCc3ccc(-c4ccc(CN5CCN(C6CC6)CC5)cc4)cc3)c2)cn1` [Example 184, 2-amino-N-((1S,2S)-2-((4′-((4-cyclopropylpiperazin-1-yl)methyl)-[1,1′-biphenyl]-4-yl)methoxy)cyclopentyl)-5-(1-methyl-1H-pyrazol-4-yl)nicotinamide], the GI50 was less than 100 nM.

For the compound `C[C@@H]1CN(Cc2ccc(-c3ccc(CO[C@H]4CCC[C@@H]4NC(=O)c4cc(-c5cnn(C)c5)cnc4N)cc3)cc2)CCN1C` [Example 186, 2-amino-N-((1S,2S)-2-((4′-(((R)-3,4-dimethylpiperazin-1-yl)-methyl)-[1,1′-biphenyl]-4-yl)methoxy)cyclopentyl)-5-(1-methyl-1H-pyrazol-4-yl)-nicotinamide], the GI50 is less than 100 nM.

Turning to `C[C@@H]1CN(C)CCN1Cc1ccc(-c2ccc(CO[C@H]3CCC[C@@H]3NC(=O)c3cc(-c4cnn(C)c4)cnc3N)cc2)cc1` [Example 187, 2-amino-N-((1S,2S)-2-((4′-(((R)-2,4-dimethylpiperazin-1-yl)-methyl)-[1,1′-biphenyl]-4-yl)methoxy)cyclopentyl)-5-(1-methyl-1H-pyrazol-4-yl)-nicotinamide], the GI50 is less than 100 nM.

Take `CCC1CN(Cc2ccc(-c3ccc(CO[C@H]4CCC[C@@H]4NC(=O)c4cc(-c5cnn(C)c5)cnc4N)cc3)cc2)CCN1C` (stereo partly drawn) [Example 188, 2-amino-N-((1S,2S)-2-((4′-((3-ethyl-4-methylpiperazin-1-yl)-methyl)-[1,1′-biphenyl]-4-yl)methoxy)cyclopentyl)-5-(1-methyl-1H-pyrazol-4-yl)-nicotinamide]: the GI50 was less than 100 nM.

Consider `C[C@@H]1CN(Cc2ccc(-c3ccc(CO[C@H]4CCC[C@@H]4NC(=O)c4cc(-c5cnn(C)c5)cnc4N)cc3)cc2)C[C@H](C)N1` [Example 189, 2-amino-N-((1S,2S)-2-((4′-((cis-3,5-dimethylpiperazin-1-vi)-methyl)-[1,1′-biphenyl]-4-yl)methoxy)cyclopentyl)-5-(1-methyl-1H-pyrazol-4-yl)-nicotinamide], for which the GI50 lay in the range of 100 to 500 nM.

Turning to `CC1CN[C@@H](C)CN1Cc1ccc(-c2ccc(CO[C@H]3CCC[C@@H]3NC(=O)c3cc(-c4cnn(C)c4)cnc3N)cc2)cc1` (stereo partly drawn) [Example 191, 2-amino-N-((1S,2S)-2-((4′-((trans-2,5-dimethylpiperazin-1-yl)methyl)-[1,1′-biphenyl]-4-yl)methoxy)cyclopentyl)-5-(1-methyl-1H-pyrazol-4-yl)nicotinamide], the GI50 is 100 to 500 nM.

`CN(C)C1CCN(Cc2ccc(-c3ccc(CO[C@H]4CCC[C@@H]4NC(=O)c4cc(-c5cnn(C)c5)cnc4N)cc3)cc2)C1` (stereo partly drawn) [Example 193, 2-amino-N-((1S,2S)-2-((4′-((3-(dimethylamino)pyrrolidin-1-yl)methyl)-[1,1′-biphenyl]-4-yl)methoxy)cyclopentyl)-5-(1-methyl-1H-pyrazol-4-yl)nicotinamide]: the GI50 is less than 100 nM.
